{
  "source": "patent US11111251B2",
  "about": "“Positive allosteric modulators of the muscarinic acetylcholine receptor M1” (Vanderbilt University, priority 2016, dated 2021)",
  "data": [
    {"molecular_target": "T1, human mAChR M1 (Homo sapiens, UniProt P11229)", "T1 sequence (P11229 1-460)": "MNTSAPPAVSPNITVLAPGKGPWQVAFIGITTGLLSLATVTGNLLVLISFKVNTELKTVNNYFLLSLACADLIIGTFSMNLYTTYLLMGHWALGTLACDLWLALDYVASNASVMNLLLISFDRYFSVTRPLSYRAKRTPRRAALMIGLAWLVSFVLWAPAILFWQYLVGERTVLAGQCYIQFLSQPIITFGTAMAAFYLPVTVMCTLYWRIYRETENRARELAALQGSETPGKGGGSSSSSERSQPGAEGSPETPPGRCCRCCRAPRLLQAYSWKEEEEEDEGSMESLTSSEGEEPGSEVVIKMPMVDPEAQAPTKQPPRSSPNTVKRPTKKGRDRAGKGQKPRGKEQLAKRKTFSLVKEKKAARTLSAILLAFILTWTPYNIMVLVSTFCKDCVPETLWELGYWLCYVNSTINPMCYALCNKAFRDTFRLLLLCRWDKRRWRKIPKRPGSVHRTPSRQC", "test": "mAChR M1 cell-based functional assay: calcium mobilization, positive allosteric modulator mode (increase in EC20 acetylcholine response)", "settings": "not given", "excerpt": "(§1) a. Cell Lines Expressing Muscarinic Acetylcholine Receptors\n(§2) Chinese hamster ovary (CHO-K1) cells stably expressing rat (r)M1 were purchased from the American Type Culture Collection and cultured according to their indicated protocol. CHO cells stably expressing human (h)M2, hM3, and hM5 were described previously (Levey, et al., 1991); hMi and hM4 cDNAs were purchased from Missouri S&T cDNA Resource; rM4 cDNA was provided by T. I. Bonner (National Institutes of Health, Bethesda, Md.). rM2 and rM3 were cloned from a rat brain cDNA library and sequence verified. hMi, rM2, rM3, hM4, and rM4 cDNAs were used to stably transfect CHO-K1 cells purchased from the American Type Culture Collection using Lipofectamine2000. To make stable rM2, hM2, rM3, hM4, and rM4 cell lines for use in calcium mobilization assays, these cells also were stably transfected with a chimeric G-protein (Gqi5) (provided by B. R. Conklin, University of California, San Francisco) using Lipofectamine 2000. rMi, hMi, rM3, hM3, rM5, and hM5 cells were grown in Ham's F-12 medium containing 10% heat-inactivated fetal bovine serum (FBS), 20 mM HEPES, and 50 μg/mL G418 sulfate. rM2-Gqi5, hM2-Gqi5, and hM4-Gqi5 cells were grown in the same medium also containing 500 μg/mL Hygromycin B. Stable rM4-Gqi5 cells were grown in DMEM containing 10% heat-inactivated FBS, 20 mM HEPES, 400 μg/mL G418 sulfate, and 500 μg/mL Hygromycin B.\n(§3) b. Cell-Based Functional Assay of Muscarinic Acetylcholine Receptor Activity\n(§4) For high throughput measurement of agonist-evoked increases in intracellular calcium, CHO-K1 cells stably expressing muscarinic receptors were plated in growth medium lacking G418 and hygromycin at 15,000 cells/20 μL/well in Greiner 384-well black-walled, tissue culture (TC)-treated, clear-bottom plates (VWR). Cells were incubated overnight at 37° C. and 5% CO2. The next day, cells were washed using an ELX 405 (BioTek) with four washes (80 μL) of assay buffer then aspirated to 20 μL. Next, 20 μL of 16 μM Fluo-4/acetoxymethyl ester (Invitrogen, Carlsbad, Calif.) prepared as a 2.3 mM stock in DMSO and mixed in a 1:1 ratio with 10% (w/v) Pluronic F-127 and diluted in assay buffer was added to the wells and the cell plates were incubated for 50 min at 37° C. and 5% CO2. Dye was removed by washing with the ELX 405 (four […], washes of assay buffer) then aspirated to 20 μL. Compound master plates were formatted in an 11 point CRC format (1:3 dilutions) in 100% DMSO with a starting concentration of 10 mM using the BRAVO liquid handler (Agilent). Test compound CRCs were then transferred to daughter plates (240 nL) using the Echo acoustic plate reformatter (Labcyte, Sunnyvale, Calif.) and then diluted into assay buffer (40 μL) to a 2× stock using a Thermo Fisher Combi (Thermo Fisher Scientific, Waltham, Mass.).\n(§5) Calcium flux was measured using the Functional Drug Screening System (FDSS) 6000 (Hamamatsu Corporation, Tokyo, Japan) as an increase in the fluorescent static ratio. Compounds were applied to cells (20 μL, 2×) using the automated system of the FDSS 6000 at 4 s into the 300 s protocol and the data were collected at 1 Hz. At 144 s into the 300s protocol, 10 μL of an EC20 concentration of the muscarinic receptor agonist acetylcholine was added (5×), followed by the addition of 12 μL an EC80 concentration of acetylcholine at the 230 s time point (5×). Agonist activity was analyzed as a concentration-dependent increase in calcium mobilization upon compound addition. Positive allosteric modulator activity was analyzed as a concentration-dependent increase in the EC20 acetylcholine response. Antagonist activity was analyzed as a concentration-dependent decrease in the EC80 acetylcholine response. Concentration-response curves were generated using a four-parameter logistical equation in XLfit curve fitting software (IDBS, Bridgewater, N.J.) for Excel (Microsoft, Redmond, Wash.) or Prism (GraphPad Software, Inc., San Diego, Calif.).", "units": {"EC50": "µM"}, "values": [
      {"molecule": "Cc1ccc(Cc2cc(C(=O)N[C@H]3CCCC[C@@H]3O)nc3ccsc23)cn1", "note": "[Compound 1, N-((1S,2S)-2-Hydroxycyclohexyl)-7-((6-methylpyridin-3-yl)methyl)thieno[3,2-b]pyridine-5-carboxamide]", "EC50": 0.087},
      {"molecule": "Cc1ccc(Oc2cc(C(=O)NC3CC(F)C3)nc3ccsc23)cn1", "note": "(centres unmarked) [Compound 17, N-(3-fluorocyclobutyl)-7-[(6-methyl-3-pyridyl)oxy]thieno[3,2-b]pyridine-5-carboxamide]", "EC50": "> 10"}
    ]},
    {"molecular_target": "T1, human mAChR M1", "test": "mAChR M1 cell-based functional assay: calcium mobilization, positive allosteric modulator mode (increase in EC20 acetylcholine response)", "settings": "Table 1; mAChR M1 cell-based functional assay, PAM mode; species not given; read-out: EC50", "excerpt": "as §1, §2, §3, §4, §5", "units": {"EC50": "µM"}, "values": [
      {"molecule": "Cn1cc(-c2ccc(Oc3cc(C(=O)N[C@H]4CCCC[C@@H]4O)nc4ccsc34)c(F)c2)cn1", "note": "[Compound 2, 7-[2-fluoro-4-(1-methylpyrazol-4-yl)phenoxy]-N-[(1S,2S)-2-hydroxycyclohexyl]thieno[3,2-b]pyridine-5-carboxamide]", "EC50": 2.15},
      {"molecule": "Cn1cc(-c2ccc(Oc3cc(C(=O)NC4CCOCC4)nc4ccsc34)c(F)c2)cn1", "note": "[Compound 4, 7-[2-fluoro-4-(1-methylpyrazol-4-yl)phenoxy]-N-tetrahydropyran-4-yl-thieno[3,2-b]pyridine-5-carboxamide]", "EC50": 4.99},
      {"molecule": "Cn1cc(-c2ccc(Oc3cc(C(=O)NC4CC[C@H]4O)nc4ccsc34)c(F)c2)cn1", "note": "(stereo partly drawn) [Compound 5, 7-[2-fluoro-4-(1-methylpyrazol-4-yl)phenoxy]-N-[(2R)-2-hydroxycyclobutyl]thieno[3,2-b]pyridine-5-carboxamide]", "EC50": "> 10"},
      {"molecule": "Cn1cc(-c2ccc(Oc3cc(C(=O)N[C@H]4CCC[C@@H]4O)nc4ccsc34)c(F)c2)cn1", "note": "[Compound 6]", "EC50": "> 10"},
      {"molecule": "Cn1cc(-c2ccc(Oc3cc(C(=O)N[C@H]4CCOC[C@@H]4O)nc4ccsc34)c(F)c2)cn1", "note": "[Compound 7]", "EC50": 3.26},
      {"molecule": "Cn1cc(-c2ccc(Oc3cc(C(=O)N[C@H]4COCC[C@@H]4O)nc4ccsc34)c(F)c2)cn1", "note": "[Compound 8]", "EC50": 7.79},
      {"molecule": "Cn1cc(-c2ccc(Oc3cc(C(=O)N[C@H]4CCCCC[C@@H]4O)nc4ccsc34)c(F)c2)cn1", "note": "[Compound 9]", "EC50": "> 10"},
      {"molecule": "Cn1cc2c(-c3ccc(Oc4cc(C(=O)N[C@H]5CCOC[C@@H]5O)nc5ccsc45)c(F)c3)cccc2n1", "note": "[Compound 13, 7-[2-fluoro-4-(2-methylindazol-4-yl)phenoxy]-N-[(3R,4S)-3-hydroxytetrahydropyran-4-yl]thieno[3,2-b]pyridine-5-carboxamide]", "EC50": 4.12},
      {"molecule": "Cn1cc2c(-c3ccc(Oc4cc(C(=O)N[C@H]5COCC[C@@H]5O)nc5ccsc45)c(F)c3)cccc2n1", "note": "[Compound 14]", "EC50": 4.25},
      {"molecule": "Cc1ccc(Oc2cc(C(=O)N[C@@H]3CC[C@H]3O)nc3ccsc23)cn1", "note": "[Compound 16]", "EC50": "> 10"},
      {"molecule": "Cc1ccc(Oc2cc(C(=O)N[C@H]3CCC[C@@H]3O)nc3ccsc23)cn1", "note": "[Compound 18, N-[(1S,2S)-2-hydroxycyclopentyl]-7-[(6-methyl-3-pyridyl)oxy]thieno[3,2-b]pyridine-5-carboxamide]", "EC50": "> 10"},
      {"molecule": "Cc1ccc(Oc2cc(C(=O)NC3CCCCC3)nc3ccsc23)cn1", "note": "[Compound 19, N-cyclohexyl-7-[(6-methyl-3-pyridyl)oxy]thieno[3,2-b]pyridine-5-carboxamide]", "EC50": "> 10"},
      {"molecule": "Cc1ccc(Oc2cc(C(=O)NC3CCOCC3)nc3ccsc23)cn1", "note": "[Compound 20, 7-[(6-methyl-3-pyridyl)oxy]-N-tetrahydropyran-4-yl-thieno[3,2-b]pyridine-5-carboxamide]", "EC50": "> 10"},
      {"molecule": "Cc1ccc(Oc2cc(C(=O)N[C@H]3CCCC[C@@H]3O)nc3ccsc23)cn1", "note": "[Compound 21, N-[(1S,2S)-2-hydroxycyclohexyl]-7-[(6-methyl-3-pyridyl)oxy]thieno[3,2-b]pyridine-5-carboxamide]", "EC50": 1.14},
      {"molecule": "Cc1ccc(Oc2cc(C(=O)N[C@H]3CCOC[C@@H]3O)nc3ccsc23)cn1", "note": "[Compound 22, N-[(3R,4S)-3-hydroxytetrahydropyran-4-yl]-7-[(6-methyl-3-pyridyl)oxy]thieno[3,2-b]pyridine-5-carboxamide]", "EC50": 1.79},
      {"molecule": "Cc1ccc(Oc2cc(C(=O)N[C@H]3COCC[C@@H]3O)nc3ccsc23)cn1", "note": "[Compound 23, N-[(3S,4S)-4-hydroxytetrahydropyran-3-yl]-7-[(6-methyl-3-pyridyl)oxy]thieno[3,2-b]pyridine-5-carboxamide]", "EC50": "> 10"},
      {"molecule": "CO[C@H]1CCCC[C@@H]1NC(=O)c1cc(Oc2ccc(C)nc2)c2sccc2n1", "note": "[Compound 24, N-[(1S,2S)-2-methoxycyclohexyl]-7-[(6-methyl-3-pyridyl)oxy]thieno[3,2-b]pyridine-5-carboxamide]", "EC50": "> 10"},
      {"molecule": "Cc1ccc(Oc2cc(C(=O)N[C@H]3CCCCC[C@@H]3O)nc3ccsc23)cn1", "note": "[Compound 25, N-[(1S,2S)-2-hydroxycycloheptyl]-7-[(6-methyl-3-pyridyl)oxy]thieno[3,2-b]pyridine-5-carboxamide]", "EC50": 0.75},
      {"molecule": "Cc1ccc(Oc2cc(C(=O)NC(CO)c3ccccc3)nc3ccsc23)cn1", "note": "(centres unmarked) [Compound 27, N-(2-hydroxy-1-phenyl-ethyl)-7-[(6-methyl-3-pyridyl)oxy]thieno[3,2-b]pyridine-5-carboxamide]", "EC50": "> 10"},
      {"molecule": "Cc1ccc(Oc2cc(C(=O)NC3CCCNC3=O)nc3ccsc23)cn1", "note": "(centres unmarked) [Compound 29, 7-[(6-methyl-3-pyridyl)oxy]-N-(2-oxo-3-pipendyl)thieno[3,2-b]pyridine-5-carboxamide]", "EC50": "> 10"},
      {"molecule": "Cc1ccc(Oc2cc(C(=O)NC(CO)C3CC3)nc3ccsc23)cn1", "note": "(centres unmarked) [Compound 30, N-(1-cyclopropyl-2-hydroxy-ethyl)-7-[(6-methyl-3-pyridyl)oxy]thieno[3,2-b]pyridine-5-carboxamide]", "EC50": "> 10"},
      {"molecule": "Cc1ccc(Oc2cc(C(=O)NCC(O)C(F)(F)F)nc3ccsc23)cn1", "note": "(centres unmarked) [Compound 31, 7-[(6-methyl-3-pyridyl)oxy]-N-(3,3,3-trifluoro-2-hydroxy-propyl)thieno[3,2-b]pyridine-5-carboxamide]", "EC50": "> 10"},
      {"molecule": "Cc1ccc(Oc2cc(C(=O)NCC(C)(C)O)nc3ccsc23)cn1", "note": "[Compound 32, N-(2-hydroxy-2-methyl-propyl)-7-[(6-methyl-3-pyridyl)oxy]thieno[3,2-b]pyridine-5-carboxamide]", "EC50": "> 10"},
      {"molecule": "COCCNC(=O)c1cc(Oc2ccc(C)nc2)c2sccc2n1", "note": "[Compound 33, N-(2-methoxyethyl)-7-[(6-methyl-3-pyridyl)oxy]thieno[3,2-b]pyridine-5-carboxamide]", "EC50": "> 10"},
      {"molecule": "Cc1ccc(Oc2cc(C(=O)NC(C)C(C)(C)CO)nc3ccsc23)cn1", "note": "(centres unmarked) [Compound 34, N-(3-hydroxy-1,2,2-trimethyl-propyl)-7-[(6-methyl-3-pyridyl)oxy]thieno[3,2-b]pyridine-5-carboxamide]", "EC50": "> 10"}
    ]},
    {"molecular_target": "T1, human mAChR M1", "test": "mAChR M1 cell-based functional assay: calcium mobilization, positive allosteric modulator mode (increase in EC20 acetylcholine response)", "settings": "Table 2; human M1", "excerpt": "as §1, §2, §3, §4, §5", "units": {"Human M1 Emax (%)": "%"}, "values": [
      {"molecule": "7-[[6-(1-methylpyrazol-4-yl)-3-pyridyl]methyl]-N-tetrahydropyran-4-yl-thieno[3,2-b]pyridine-5-carboxamide [Compound 301]", "Human M1 Emax (%)": 71.87}
    ]},
    {"molecular_target": "T1, human mAChR M1", "test": "mAChR M1 cell-based functional assay: calcium mobilization, positive allosteric modulator mode (increase in EC20 acetylcholine response)", "settings": "Table 2; human M1; read-out: Human M1 EC50", "excerpt": "as §1, §2, §3, §4, §5", "units": {"EC50": "µM"}, "values": [
      {"molecule": "7-[[6-(1-methylpyrazol-4-yl)-3-pyridyl]methyl]-N-tetrahydropyran-4-yl-thieno[3,2-b]pyridine-5-carboxamide [Compound 301]", "EC50": 0.0423}
    ]}
  ]
}
